From US20260217732A1, “WRN INHIBITOR” (SUZHOU PUHE BIOPHARMA CO., LTD., priority 2022, published 2026)
Read-outs that look alike come from different tables or passages of the source.

How the values were obtained:
[1] = test system: SW48 (MSI-H) colorectal cancer tumor cells; experiment: In vivo efficacy, SW48 xenograft in nude mice; design: species or system BALB/c nude mice; settings: QD, oral; for TGI: 21 days; for Tumor Volume D 1: day 1; for Tumor volume D 21: day 21
Method: In vivo efficacy experiment in BALB/C nude mice. Details are as follows:
SW48 (MSI-H) colorectal cancer tumor cells were cultured (in an L15 medium with 10% fetal bovine serum), and inoculated into 6-8 week old female BALB/c nude mice (with body weight of about 20 g). All the mice were inoculated subcutaneously. The mice were raised in an SPF-grade experimental environment, and all the mice were free to take commercially certified standard diets. When the tumors grew to an average volume of about 160 mm^3 in mice, the test compound was orally administered daily. […] The tumor volume was measured with a two-dimensional caliper three times a week, and the animals were weighed every day. […] The volume calculation formula is: V=1/2a*b^2, where a represents the long diameter of the tumor and b represents the short diameter of the tumor.

[2] = female, CD1, mouse, in vivo
Method: (§1) Mouse Pharmacokinetic Evaluation Experiment
(§2) CD1 female mice were used as test animals to be administered orally/intravenously (with oral dosage of 10 mg/kg or intravenous dosage of 2 mg/kg).
(§3) Experimental scheme: The oral administration group comprised 3 mice per group (Solvent: 10% Hβ-CD-pH7.4), and the intravenous group comprised 3 mice per group. […] The blood concentration in the plasma of mice was determined using the LC/MS/MS method after the oral or intravenous administration, respectively, and the collected data were calculated using the AB Sciex QTRAP 6500 software.

[3] = in vivo; settings: female, CD1, mouse
Method: as §1, §2, §3

[4] = target: T1, WRN enzyme (Homo sapiens, UniProt Q14191); experiment: WRN helicase hydrolysis (unwinding) of double-stranded DNA, fluorescence assay; assay type: biochemical; settings: 30 min pre-incubation, 60 min reaction
T1 construct: 10 μL (2×) of WRN enzyme solution was added
Method: • The molecules of the present disclosure were tested for their activities on the WRN helicase hydrolysis of double-stranded DNA (Table 1).
A working solution to be tested and a buffer were prepared. The compound to be tested was dissolved in DMSO and subjected to 4× dilution (with 10 μM final concentration as the starting concentration). 0.2 μL of the solution of the compound to be tested was added to the 384-well plate and 10 μL (2×) of WRN enzyme solution was added. The solution was incubated in the dark for 30 minutes. Then, 10 μL of a substrate detection solution containing double-stranded DNA was added to initiate the reaction (the DNA has a length of 19 bp, and labeled with TAMRA and BHQ2 at 3′ and 5′-ends, respectively). The solution was incubated at room temperature for 60 minutes. The inhibitory activities (IC50) against WRN enzyme were calculated based on the change of Ex530/Em590 in the blank group (DMSO) and the compound group.

[5] = test system: SW48 colorectal cancer cells; experiment: 2D antiproliferation on MSI-H SW48 cells, CTG, 5 days; assay type: cell-based; settings: for IC50 / inhibition at 38.15 pM / inhibition at 0.000152588 µM / inhibition at 0.000610352 µM / inhibition at 0.00244141 µM / inhibition at 0.00976562 µM / inhibition at 0.0390625 µM / inhibition at 0.15625 µM / inhibition at 0.625 µM / inhibition at […] / inhibition at 10 µM: Homo sapiens; for IC50: 120 h, SW48 MSI-H, 5 days; for inhibition at 38.15 pM: SW48, 0.038146973 nM; for inhibition at 0.000152588 µM: SW48, 0.152587891 nM; for inhibition at 0.000610352 µM: SW48, 0.610351563 nM; for inhibition at 0.00244141 µM: SW48, 2.44140625 nM; for inhibition at 0.00976562 µM: SW48, 9.765625 nM; for inhibition at 0.0390625 µM: SW48, 39.0625 nM; for inhibition at 0.15625 µM: SW48, 156.25 nM; for inhibition at 0.625 µM: SW48, 625 nM; for inhibition at […]: SW48, 2500 nM; for inhibition at 10 µM: SW48, 10000 nM
In short: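 MSI-H SW48 colorectal cells in RPMI1640 with 10% FBS exposed to graded compound concentrations for 5 days at 37 °C, 5% CO2. Viability read as CellTiter-Glo ATP luminescence after 30 min.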

[6] = test system: HT-29 colorectal cancer cells; experiment: 2D antiproliferation on MSS HT-29 cells, CTG, 5 days; assay type: cell-based; settings: Homo sapiens, 120 h, HT-29 MSS
In short: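 HT-29 (MSS) colorectal cells in McCoy's 5A with 10% FBS were exposed to a range of compound concentrations for 5 days at 37° C, 5% CO2. Viability was read as CellTiter-Glo luminescence after 30 min, which reflects ATP content.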

[7] = Caco-2 membrane permeability assay; assay type: in vitro ADME; settings: human
Method: Membrane Permeability Evaluation Experiments: Caco-2 Assays
The molecules of the present disclosure were evaluated for their membrane permeability. […] Data would be used for apparent permeability (Papp).
wherein VA is the volume of the receptor pore (unit: mL), Area is the surface area of the membrane (0.143 cm^2 for Transwell-96 well permeable scaffolds), and time is the total transport time (unit: seconds).

[8] = read-out: Average Value/Inhibition Rate
[9] = read-out: Test 1/Inhibition Rate
[10] = read-out: Test 2/Inhibition Rate
[11] = Caco-2, apical pH 6.5, basolateral pH 7.4

T1 sequence (Q14191 whole entry): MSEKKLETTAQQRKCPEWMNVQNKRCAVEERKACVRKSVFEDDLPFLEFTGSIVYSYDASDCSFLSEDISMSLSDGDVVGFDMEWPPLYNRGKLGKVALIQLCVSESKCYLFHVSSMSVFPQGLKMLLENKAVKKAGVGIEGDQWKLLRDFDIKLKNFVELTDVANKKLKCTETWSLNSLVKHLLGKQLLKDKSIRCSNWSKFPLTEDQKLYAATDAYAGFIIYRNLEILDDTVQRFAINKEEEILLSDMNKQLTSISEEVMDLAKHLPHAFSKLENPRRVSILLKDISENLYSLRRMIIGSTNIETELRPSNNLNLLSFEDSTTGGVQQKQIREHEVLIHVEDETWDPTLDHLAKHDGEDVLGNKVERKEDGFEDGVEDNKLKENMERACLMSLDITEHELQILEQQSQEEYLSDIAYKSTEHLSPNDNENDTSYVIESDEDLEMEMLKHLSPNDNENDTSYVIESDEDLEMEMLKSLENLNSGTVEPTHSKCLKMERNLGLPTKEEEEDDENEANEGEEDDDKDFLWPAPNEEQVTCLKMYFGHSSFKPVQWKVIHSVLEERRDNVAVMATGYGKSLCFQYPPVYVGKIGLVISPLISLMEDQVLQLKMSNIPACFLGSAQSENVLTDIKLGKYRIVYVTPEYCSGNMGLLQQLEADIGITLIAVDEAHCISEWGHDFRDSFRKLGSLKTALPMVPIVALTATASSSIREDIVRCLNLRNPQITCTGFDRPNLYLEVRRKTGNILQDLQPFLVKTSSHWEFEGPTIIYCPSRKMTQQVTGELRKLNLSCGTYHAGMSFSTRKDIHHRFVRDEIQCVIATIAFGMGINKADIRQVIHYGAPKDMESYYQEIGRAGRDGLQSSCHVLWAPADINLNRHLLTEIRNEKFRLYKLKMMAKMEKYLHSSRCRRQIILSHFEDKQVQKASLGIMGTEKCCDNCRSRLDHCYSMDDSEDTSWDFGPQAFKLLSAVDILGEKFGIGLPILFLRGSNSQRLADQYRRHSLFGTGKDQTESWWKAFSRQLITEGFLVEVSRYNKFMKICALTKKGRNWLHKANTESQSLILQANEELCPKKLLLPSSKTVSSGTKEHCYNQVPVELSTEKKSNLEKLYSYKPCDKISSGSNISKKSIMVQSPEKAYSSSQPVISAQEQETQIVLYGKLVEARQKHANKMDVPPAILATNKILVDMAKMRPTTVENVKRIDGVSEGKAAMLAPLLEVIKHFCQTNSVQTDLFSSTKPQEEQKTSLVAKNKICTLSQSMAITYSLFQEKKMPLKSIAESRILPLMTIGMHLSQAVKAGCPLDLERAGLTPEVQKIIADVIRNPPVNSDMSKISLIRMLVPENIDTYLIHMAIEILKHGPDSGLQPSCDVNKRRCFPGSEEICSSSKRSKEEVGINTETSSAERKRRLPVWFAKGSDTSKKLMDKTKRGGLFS

**Q.** Which results are given for `CCc1c(N2CCN(C(=O)c3ncccc3O)CC2)c(=O)n2nc(-c3cccnc3)nc2n1CC(=O)Nc1ccc(C(F)(F)F)cc1C` [A1, reference compound]?
**A.** TGI ([1]; 20 mg/kg): 16%; Tumor Volume D 1 ([1]; 20 mg/kg): 162 mm^3; Tumor volume D 21 ([1]; 20 mg/kg): 1672 mm^3; TGI ([1]; 50 mg/kg): 50%; Tumor Volume D 1 ([1]; 50 mg/kg): 160 mm^3; Tumor volume D 21 ([1]; 50 mg/kg): 1065 mm^3; F [2]: 14%; AUC(0-t) ([3]; iv, 2 mg/kg): 1190 ng·h/mL; C0 ([3]; iv, 2 mg/kg): 2520 ng/mL; clearance ([3]; iv, 2 mg/kg): 28.1 mL/min/kg; half-life ([3]; iv, 2 mg/kg): 1.3 h; AUC(0-t) ([3]; po, 10 mg/kg): 801 ng·h/mL; Cmax ([3]; po, 10 mg/kg): 584 ng/mL; Tmax ([3]; po, 10 mg/kg): 0.5 h; half-life ([3]; po, 10 mg/kg): 1.4 h

**Q.** Which results are given for `CCc1c(N2CCN(C(=O)c3ncccc3O)CC2)c(=O)n2nc(-c3ccc(CO)s3)nc2n1CC(=O)Nc1ccc(C(F)(F)F)cc1Cl` [P9]?
**A.** IC50 [4]: 1.2 nM; IC50 [5]: 54 nM; IC50 [6]: > 10000 nM; F [2]: 25%; AUC(0-t) ([3]; iv, 2 mg/kg): 1230 ng·h/mL; C0 ([3]; iv, 2 mg/kg): 2840 ng/mL; clearance ([3]; iv, 2 mg/kg): 27 mL/min/kg; half-life ([3]; iv, 2 mg/kg): 0.9 h; AUC(0-t) ([3]; po, 10 mg/kg): 1520 ng·h/mL; Cmax ([3]; po, 10 mg/kg): 695 ng/mL; Tmax ([3]; po, 10 mg/kg): 1 h; half-life ([3]; po, 10 mg/kg): 1.4 h

**Q.** What does the source list for `CCc1c(N2CCN(C(=O)c3ncnc(C)c3O)CC2)c(=O)n2nc(-c3cc4c(s3)COC4)nc2n1CC(=O)Nc1ccc(C(F)(F)F)cc1C` [P29]?
**A.** IC50 [4]: 2.1 nM; inhibitory activity on SW48 cells ([5]; 39 nM): high inhibitory activity; IC50 [5]: 32 nM; inhibition at 38.15 pM [5, 8]: 18.3%; inhibition at 38.15 pM [5, 9]: 18%; inhibition at 38.15 pM [5, 10]: 18.6%; inhibition at 0.000152588 µM [5, 8]: 25.6%; inhibition at 0.000152588 µM [5, 9]: 26.1%; inhibition at 0.000152588 µM [5, 10]: 25.1%; inhibition at 0.000610352 µM [5, 8]: 14.7%; inhibition at 0.000610352 µM [5, 9]: 19.4%; inhibition at 0.000610352 µM [5, 10]: 9.96%; inhibition at 0.00244141 µM [5, 8]: 19.8%; inhibition at 0.00244141 µM [5, 9]: 12.8%; inhibition at 0.00244141 µM [5, 10]: 26.8%; inhibition at 0.00976562 µM [5, 8]: 21.2%; inhibition at 0.00976562 µM [5, 9]: 17.4%; inhibition at 0.00976562 µM [5, 10]: 25.1%; inhibition at 0.0390625 µM [5, 8]: 70.9%; inhibition at 0.0390625 µM [5, 9]: 70.9%; inhibition at 0.0390625 µM [5, 10]: 70.9%; inhibition at 0.15625 µM [5, 8]: 97.3%; inhibition at 0.15625 µM [5, 9]: 96.5%; inhibition at 0.15625 µM [5, 10]: 98.1%; inhibition at 0.625 µM [5, 8]: 99.4%; inhibition at 0.625 µM [5, 9]: 99.1%; inhibition at 0.625 µM [5, 10]: 99.6%; inhibition at […] [5, 8]: 99%; inhibition at […] [5, 9]: 99.1%; inhibition at […] [5, 10]: 99%; inhibition at 10 µM [5, 8]: 99.8%; inhibition at 10 µM [5, 9]: 100%; inhibition at 10 µM [5, 10]: 99.6%; IC50 [6]: > 10000 nM; TGI ([1]; 120 mg/kg): 105%; Tumor Volume D 1 ([1]; 120 mg/kg): 174 mm^3; Tumor volume D 21 ([1]; 120 mg/kg): 36 mm^3

**Q.** With `CCc1c(N2CCN(C(=O)c3ncnc(C)c3O)CC2)c(=O)n2nc(-c3cc4c(s3)COC4)nc2n1CC(=O)Nc1ccc(C(F)(F)F)c2ccoc12` [P57] as the molecule, how does the IC50 [4] read?
**A.** 1.3 nM

**Q.** What about the IC50 [5] of the same molecule?
**A.** 34 nM

**Q.** And the IC50 [6]?
**A.** > 10000 nM

**Q.** And the F [2]?
**A.** 57%

**Q.** What about the AUC(0-t) ([3]; iv, 2 mg/kg) of the same molecule?
**A.** 3150 ng·h/mL

**Q.** And the C0 ([3]; iv, 2 mg/kg)?
**A.** 2920 ng/mL

**Q.** And the clearance ([3]; iv, 2 mg/kg)?
**A.** 10.5 mL/min/kg

**Q.** And the half-life ([3]; iv, 2 mg/kg)?
**A.** 1.2 h

**Q.** What about the AUC(0-t) ([3]; po, 10 mg/kg) of the same molecule?
**A.** 8930 ng·h/mL

**Q.** And the Cmax ([3]; po, 10 mg/kg)?
**A.** 4260 ng/mL

**Q.** And the Tmax ([3]; po, 10 mg/kg)?
**A.** 0.5 h

**Q.** And the half-life ([3]; po, 10 mg/kg)?
**A.** 1.4 h

**Q.** Which results are given for `CCc1c(N2CCN(C(=O)c3ncnc(C)c3O)CC2)c(=O)n2nc(-c3cc4c(s3)COC4)nc2n1CC(=O)Nc1ccc(Br)c2ccoc12` [P59]?
**A.** IC50 [4]: 1.5 nM; IC50 [5]: 39 nM; IC50 [6]: > 10000 nM; F [2]: 41%; AUC(0-t) ([3]; iv, 2 mg/kg): 2970 ng·h/mL; C0 ([3]; iv, 2 mg/kg): 5260 ng/mL; clearance ([3]; iv, 2 mg/kg): 11.2 mL/min/kg; half-life ([3]; iv, 2 mg/kg): 0.9 h; AUC(0-t) ([3]; po, 10 mg/kg): 6070 ng·h/mL; Cmax ([3]; po, 10 mg/kg): 2850 ng/mL; Tmax ([3]; po, 10 mg/kg): 0.25 h; half-life ([3]; po, 10 mg/kg): 1.3 h

**Q.** For `CCc1c(N2CCN(C(=O)c3ncnc(C)c3O)CC2)c(=O)n2nc(-c3cc4c(s3)COC4)nc2n1CC(=O)Nc1ccc(C(F)(F)F)c(C)c1C` [P62], which IC50 [5] is on record?
**A.** 37 nM

**Q.** What about the efflux ratio ([7]; Caco-2) of the same molecule?
**A.** 11.6

**Q.** And the Papp A→B [7, 11]?
**A.** 1.54 ×10⁻⁶ cm/s

**Q.** What about the Papp B→A [7, 11] of the same molecule?
**A.** 17.9 ×10⁻⁶ cm/s
